Columns and labels:
[1] = tested on: PMN's (polymorphonuclear leukocytes); experiment: Neutrophil oxidative burst; format: cell-based; details: Leukocyte, 40 min; normalized to positive control 5×10^−7 M PEP0005; 40 min incubation at RT; read-out: Neutrophil oxidative burst Rel EC50
Method: PMN's (polymorphonuclear leukocytes) were isolated and purified from fresh buffy coats by sequential sedimentation, density centrifugation and lysis of contaminating erythrocytes. Buffy coats were incubated with 2% methocel for 30-45 min to differentially sediment red blood cells. The leukocyte-rich supernatant was transferred to lymphoprep tubes to remove mononuclear cells by density centrifugation (400×g, 30 min). The pellet was resuspended and any remaining erythrocytes lysed using 0.2% NaCl for 30 sec before restoring isotonicity by the addition of 1.2% NaCl. This step was repeated until the cell pellet appears relatively free of red blood cells. Cells were resuspended in DPBS (Dulbecco's Phosphate Buffered Saline) (w.o. Ca^2+, Mg^2+) and the concentration adjusted to 1.4×10^6 cells/ml in HBSS (Hanks Balanced Salt solution) (w Ca^2+, Mg^2+) containing 0.1% BSA (Bovine Serum Albumin) and 5 mM glucose just prior to assay initiation. Titrated reference and test compounds were pre-mixed with HE (Hydroethidine) (10 μM final assay concentration) before addition to 96-well plates containing 2.5×10^5 cells. Following 40 min incubation at RT, changes in the respiratory burst was estimated by measuring fluorescence at 579 nm (excitation: 485 nm) using an Envision plate reader.
(§1) Test compound titration curves were fitted to a four-parameter sigmoidal curve after normalizing the effect of the test compound to the effect of the positive control (5×10^−7 M PEP0005). Rel EC50 (relative EC50) denotes the concentration of test compound producing an effect that is midway between the fitted top and bottom.

[2] = tested on: Primary human epidermal keratinocytes, HeKa; experiment: HeKa cytokine release (IL-8); format: cell-based; details: normalized to positive control 1.5×10^−7 M PEP0005, 6 h incubation, read-out: HeKa cytokine release (IL-8) Rel EC50
Method: Primary human epidermal keratinocytes, HeKa, were seeded (10.000 cells/well) in 96-well plates the day before the assay. Test compounds were diluted in DMSO (dimethyl sulfoxide) and further diluted in assay medium and pipetted into wells of 96 well-plates containing HeKa cells. The plates were incubated for 6 h at 37° C. in humidified air with 5% CO2. Plates were centrifuged briefly to spin down cells at 4° C., the supernatant was removed and analysed by Meso Scale Discovery (MSD) 4-spot cytokine assay (Pro-inflammatory II Ultra Sensitive kit, MSD, MD, USA). The MSD assay employs a sandwich immunoassay format where capture antibodies are coated in a patterned array on the bottom of the wells of a 4-Spot-Multi-MSD plate. Standard samples were incubated in the MULTI-SPOT plates as well, and the cytokine (IL-8) binds to its corresponding capture antibody spot. The cytokine level was quantitated on a SECTOR™ Imager using a cytokine-specific Detection Antibody labelled with MSD SULFO-TAG™ reagent.
as §1, with “(1.5×10^−7” for “(5×10^−7”

[3] = target: Human Protein Kinase C delta (PKCδ) (Homo sapiens (Human), UniProt Q05655); experiment: PKC δ binding assay; format: biochemical; details: kinase activation, γ-33P-ATP, normalized to the effect of DMSO; read-out: PKC-δ binding Rel EC50
Method: On the day at experiment Human Protein Kinase C delta (PKCδ, Millipore cat#14-504) was diluted in 20 mM HEPES, 0.03% Triton X-100. Amount of enzyme in each assay was 7.25 ng (final assay volume is 25 μL). All compounds for testing were diluted to 1 mM in 100% DMSO as an intermediary dilution. The compounds were then diluted further to 50 μM, and then serially diluted in 100% DMSO in semi-logarithmic decrements for 12 points. 0.5 μL of each concentration, in duplicate, was pipetted into a dry 96 well assay plate using a TTP Mosquito. Control and blank wells received 0.5 μL of 100% DMSO instead of compound. The assay was built with the addition of 14.5 μL of assay mixture, containing appropriately diluted enzyme and 20 mM HEPES pH 7.4, 0.03% Triton X-100, 0.05 mg/mL phosphatidylserine, and 50 μM ERMRPRKRQGSVRRRV. The assay was started with the addition of 10 μL ATP containing γ-33P-ATP] (specific activity approx. 500 cpm/pmol), to a final assay concentration of 15 μM. The reaction was allowed to proceed at room temperature for 40 minutes before the addition of 5 μL 3% ortho-phosphoric acid. Blank wells were acid blanks, and had 5 μL 3% ortho-phosphoric acid added before the addition of ATP. 10 μL of the stopped reaction products was transferred to a P30 filtermat which was then washed 4 times in 75 mM ortho-phosphoric acid, and once in methanol before drying. The filter was read by liquid scintillation counting using a Wallac Trilux. Rel EC50 (relative EC50) denotes the concentration of test compound that produces a response half-way between the fitted top and the fitted bottom of the curve when activities are normalized to the effect of DMSO.

[4] = target: Human Protein Kinase C betaII (PKCbII) (Homo sapiens (Human), UniProt P05771); experiment: PKCbetaII activity assay; format: biochemical; details: γ-33P-ATP, normalized to the effect of DMSO, read-out: PKC-β binding Rel EC50
Method: On the day at experiment Human Protein Kinase C betaII (PKCbII, Millipore cat#14-496) was incubated with 20 mM HEPES pH 7.4, 0.03% Triton X-100, 0.1 mM CaCl2, 0.1 mg/mL phosphatidylserine, 0.1 mg/mL histone H1, 10 mM MgAcetate. Amount of enzyme in each assay was 1.8 ng (final assay volume is 25 μL). The compounds were then diluted to 500 μM, and then serially diluted in 100% DMSO in semi-logarithmic decrements for 12 points. 0.5 μL of each concentration, in duplicate, was pipetted into a dry 96 well assay plate using a TIP Mosquito. Control and blank wells received 0.5 μL of 100% DMSO instead of compound. 14.5 μl kinase in assay buffer was added to each well. The assay was started with the addition of 10 μL ATP containing γ-33P-ATP] (specific activity approx. 500 cpm/pmol), to a final assay concentration of 70 μM. The reaction was allowed to proceed at room temperature for 40 minutes before the addition of 5 μL 3% ortho-phosphoric acid. Blank wells were acid blanks, and had 5 μL 3% ortho-phosphoric acid added before the addition of ATP. 10 μL of the stopped reaction products was transferred to a P30 filtermat which was then washed 4 times in 75 mM ortho-phosphoric acid, and once in methanol before drying. The filter was read by liquid scintillation counting using a Wallac Trilux. Rel EC50 (relative EC50) denotes the concentration of test compound that produces a response half-way between the fitted top and the fitted bottom of the curve when activities are normalized to the effect of DMSO.

Chain of Human Protein Kinase C delta (PKCδ) (Q05655 whole entry): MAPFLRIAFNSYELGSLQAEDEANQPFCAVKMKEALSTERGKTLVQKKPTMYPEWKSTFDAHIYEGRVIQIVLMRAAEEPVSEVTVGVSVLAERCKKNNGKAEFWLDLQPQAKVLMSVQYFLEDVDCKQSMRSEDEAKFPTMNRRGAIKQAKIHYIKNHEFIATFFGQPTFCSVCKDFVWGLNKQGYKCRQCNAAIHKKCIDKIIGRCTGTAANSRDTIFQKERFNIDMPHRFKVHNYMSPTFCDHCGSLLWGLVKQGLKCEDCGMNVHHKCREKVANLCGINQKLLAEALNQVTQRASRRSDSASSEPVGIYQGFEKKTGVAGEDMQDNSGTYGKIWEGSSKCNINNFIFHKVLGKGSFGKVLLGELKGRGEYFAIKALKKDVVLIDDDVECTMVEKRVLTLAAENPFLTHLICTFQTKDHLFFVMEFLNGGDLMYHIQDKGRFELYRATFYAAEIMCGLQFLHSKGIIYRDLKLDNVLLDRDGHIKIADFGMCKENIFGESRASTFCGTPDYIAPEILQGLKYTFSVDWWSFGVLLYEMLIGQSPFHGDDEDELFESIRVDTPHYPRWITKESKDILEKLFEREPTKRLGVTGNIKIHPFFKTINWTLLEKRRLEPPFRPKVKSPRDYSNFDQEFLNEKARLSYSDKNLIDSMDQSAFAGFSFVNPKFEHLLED
Chain of Human Protein Kinase C betaII (PKCbII) (P05771 other isoform, or with tags, fused parts or gaps): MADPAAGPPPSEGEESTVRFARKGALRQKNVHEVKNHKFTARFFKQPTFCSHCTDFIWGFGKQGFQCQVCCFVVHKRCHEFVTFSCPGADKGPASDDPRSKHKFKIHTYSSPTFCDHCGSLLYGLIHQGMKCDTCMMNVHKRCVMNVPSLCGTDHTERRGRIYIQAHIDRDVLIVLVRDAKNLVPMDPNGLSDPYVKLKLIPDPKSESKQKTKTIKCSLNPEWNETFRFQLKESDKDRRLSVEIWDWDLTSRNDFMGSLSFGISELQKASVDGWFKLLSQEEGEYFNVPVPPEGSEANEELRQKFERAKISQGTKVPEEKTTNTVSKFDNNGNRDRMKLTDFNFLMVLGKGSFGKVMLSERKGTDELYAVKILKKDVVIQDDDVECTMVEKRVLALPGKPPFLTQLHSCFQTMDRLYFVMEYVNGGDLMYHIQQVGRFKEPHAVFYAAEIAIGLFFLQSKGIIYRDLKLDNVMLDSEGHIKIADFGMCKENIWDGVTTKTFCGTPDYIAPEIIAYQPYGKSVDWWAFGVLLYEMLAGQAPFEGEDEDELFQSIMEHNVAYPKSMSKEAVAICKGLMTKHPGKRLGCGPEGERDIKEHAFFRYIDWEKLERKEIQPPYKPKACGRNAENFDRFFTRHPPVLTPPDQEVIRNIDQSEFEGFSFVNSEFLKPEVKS

SMILES | EC50 [1] [nM] | EC50 [2] [nM] | EC50 [3] [nM] | EC50 [4] [nM]
CC1=C[C@]23C(=O)[C@@H](C=C(CO)C[C@@H]2[C@H]1OC(=O)C1(C)CCCCC1)[C@H]1[C@@H](C[C@H]3C)C1(C)C [Compound 5, 4,5-dideoxyingenol 3-(1-methyl-cyclohexanecarboxylate)] | 13 | 130 | 1110 | 6
CC1=C[C@]23C(=O)[C@@H](C=C(CO)C[C@]2(O)[C@H]1OC(=O)C1(C)CCCCC1)[C@H]1[C@@H](C[C@H]3C)C1(C)C [Compound 6, 5-deoxyingenol 3-(1-methyl-cyclohexanecarboxylate)] | 7 | 26 | 80 | 0.8
CC1=C[C@]23C(=O)[C@@H](C=C(CO)[C@@H](O)[C@@H]2[C@H]1OC(=O)C1(C)CCCCC1)[C@H]1[C@@H](C[C@H]3C)C1(C)C [Compound 7, 4-deoxyingenol 3-(1-methyl-cyclohexanecarboxylate)] | 9 | 35 | 154 | 0.2
CC1=C[C@@]23CC[C@@H]4[C@H]([C@H](C=C(CO)[C@@H](O)[C@]2(O)[C@H]1OC(=O)C1(C)CCCCC1)C3=O)C4(C)C [Compound 8, 11-desmethyl-ingenol 3-(1-methyl-cyclohexanecarboxylate)] | 4 | 4 | 7 | 0.1
